In PubChem BioAssay (NCI):
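Dose response: 5 concentrations. Exposure: 48 h. Format: 96-well plates. Endpoint: linear interpolation; highest concentration if not reached. Here, GI50 denotes the concentration required for 50% inhibition of growth. TGI marks complete inhibition of growth.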

Experiments:
Assay in all cases: DTP human tumour cell line panel, 48 h
CCRF-CEM leukemia = tested on: CCRF-CEM leukemia
SF-268 CNS = tested on: SF-268 CNS
HCT-116 colon = tested on: HCT-116 colon
MOLT-4 leukemia = tested on: MOLT-4 leukemia
HCC-2998 colon = tested on: HCC-2998 colon
SF-539 CNS = tested on: SF-539 CNS
NCI-H522 lung = tested on: NCI-H522 lung
UACC-257 melanoma = tested on: UACC-257 melanoma
SW-620 colon = tested on: SW-620 colon
HL-60(TB) leukemia = tested on: HL-60(TB) leukemia
786-0 renal = tested on: 786-0 renal
OVCAR-8 ovarian = tested on: OVCAR-8 ovarian
MCF7 breast = tested on: MCF7 breast
LOX IMVI melanoma = tested on: LOX IMVI melanoma
SK-OV-3 ovarian = tested on: SK-OV-3 ovarian
A549 NSCLC = tested on: A549 NSCLC
DU-145 prostate = tested on: DU-145 prostate
SNB-19 CNS = tested on: SNB-19 CNS
MDA-MB-435 = tested on: MDA-MB-435
A498 renal = tested on: A498 renal
NCI-H226 lung = tested on: NCI-H226 lung
SN12C renal = tested on: SN12C renal
T-47D breast = tested on: T-47D breast
NCI-H460 lung = tested on: NCI-H460 lung
OVCAR-4 ovarian = tested on: OVCAR-4 ovarian
COLO 205 colon = tested on: COLO 205 colon
MALME-3M melanoma = tested on: MALME-3M melanoma
SK-MEL-5 melanoma = tested on: SK-MEL-5 melanoma
SK-MEL-28 melanoma = tested on: SK-MEL-28 melanoma
HCT-15 colon = tested on: HCT-15 colon
UACC-62 melanoma = tested on: UACC-62 melanoma
K-562 leukemia = tested on: K-562 leukemia
NCI-H23 lung = tested on: NCI-H23 lung
IGROV1 ovarian = tested on: IGROV1 ovarian
KM12 colon = tested on: KM12 colon
RXF 393 renal = tested on: RXF 393 renal
UO-31 renal = tested on: UO-31 renal
OVCAR-3 ovarian = tested on: OVCAR-3 ovarian
PC-3 prostate = tested on: PC-3 prostate
M14 melanoma = tested on: M14 melanoma
HS 578T breast = tested on: HS 578T breast
U251 CNS = tested on: U251 CNS
OVCAR-5 ovarian = tested on: OVCAR-5 ovarian
HOP-92 NSCLC = tested on: HOP-92 NSCLC
SNB-75 CNS = tested on: SNB-75 CNS
CAKI-1 renal = tested on: CAKI-1 renal
MDA-MB-231 breast = tested on: MDA-MB-231 breast
HOP-62 NSCLC = tested on: HOP-62 NSCLC
ACHN renal = tested on: ACHN renal
NCI/ADR-RES ovarian = tested on: NCI/ADR-RES ovarian
BT-549 breast = tested on: BT-549 breast
TK-10 renal = tested on: TK-10 renal
SR leukemia = tested on: SR leukemia
SK-MEL-2 melanoma = tested on: SK-MEL-2 melanoma
HT29 colon = tested on: HT29 colon

## CCOC(=O)N1C/C(=C/c2ccc(Cl)cc2)C(=O)/C(=C/c2ccc(Cl)cc2)C1
CCRF-CEM leukemia
  GI50: 3.24 µM
  TGI: > 100 µM
SF-268 CNS
  GI50: 3.86 µM
  TGI: 14.7 µM
HCT-116 colon
  GI50: 1.04 µM
  TGI: 2.72 µM
MOLT-4 leukemia
  GI50: 4.65 µM
  TGI: > 100 µM
HCC-2998 colon
  GI50: 2.32 µM
  TGI: 5.29 µM
SF-539 CNS
  GI50: 2.67 µM
  TGI: 7.81 µM
NCI-H522 lung
  GI50: 9.77 µM
  TGI: 22.4 µM
UACC-257 melanoma
  GI50: 8.54 µM
  TGI: 23.9 µM
SW-620 colon
  GI50: 2.06 µM
  TGI: 4.73 µM
HL-60(TB) leukemia
  GI50: 7.04 µM
  TGI: 88.7 µM
786-0 renal
  GI50: 2.08 µM
  TGI: 4.35 µM
OVCAR-8 ovarian
  GI50: 3.81 µM
  TGI: 86.4 µM
MCF7 breast
  GI50: 1.55 µM
  TGI: 8.04 µM
LOX IMVI melanoma
  GI50: 1.89 µM
  TGI: 4.22 µM
SK-OV-3 ovarian
  GI50: 5.42 µM
  TGI: 20.8 µM
A549 NSCLC
  GI50: 3.06 µM
  TGI: 20.7 µM
DU-145 prostate
  GI50: 4.36 µM
  TGI: 15.9 µM
SNB-19 CNS
  GI50: 4.66 µM
  TGI: 18.4 µM
MDA-MB-435
  GI50: 3.33 µM
  TGI: 13 µM
A498 renal
  GI50: 12 µM
  TGI: 26.4 µM
NCI-H226 lung
  GI50: 16.9 µM
  TGI: 52 µM
SN12C renal
  GI50: 2.84 µM
  TGI: 11.7 µM
T-47D breast
  GI50: 3.74 µM
  TGI: 35.5 µM
NCI-H460 lung
  GI50: 3.86 µM
  TGI: 16.4 µM
OVCAR-4 ovarian
  GI50: 3.35 µM
  TGI: 14.4 µM
COLO 205 colon
  GI50: 2.96 µM
  TGI: 8.83 µM
MALME-3M melanoma
  GI50: 15.4 µM
  TGI: 32 µM
SK-MEL-5 melanoma
  GI50: 3.43 µM
  TGI: 13.1 µM
SK-MEL-28 melanoma
  GI50: 3.43 µM
  TGI: 12.7 µM
HCT-15 colon
  GI50: 2.18 µM
  TGI: 7.24 µM
UACC-62 melanoma
  GI50: 3 µM
  TGI: 14.3 µM
K-562 leukemia
  GI50: 3.34 µM
  TGI: > 100 µM
NCI-H23 lung
  GI50: 5.37 µM
  TGI: 27.7 µM
IGROV1 ovarian
  GI50: 3.52 µM
  TGI: 13 µM
KM12 colon
  GI50: 2.1 µM
  TGI: 4.39 µM
RXF 393 renal
  GI50: 1.69 µM
  TGI: 3.34 µM
UO-31 renal
  GI50: 2.36 µM
  TGI: 7.2 µM
OVCAR-3 ovarian
  GI50: 2.22 µM
  TGI: 4.57 µM
PC-3 prostate
  GI50: 2.94 µM
  TGI: 15 µM
M14 melanoma
  GI50: 4.23 µM
  TGI: 17.8 µM
HS 578T breast
  GI50: 3.94 µM
  TGI: 41.8 µM
U251 CNS
  GI50: 1.98 µM
  TGI: 4.18 µM
OVCAR-5 ovarian
  GI50: 4.43 µM
  TGI: 19.8 µM
HOP-92 NSCLC
  GI50: 10.5 µM
  TGI: 32 µM
SNB-75 CNS
  GI50: 3.15 µM
  TGI: 16.2 µM
CAKI-1 renal
  GI50: 4.57 µM
  TGI: > 100 µM
MDA-MB-231 breast
  GI50: 2.88 µM
  TGI: 9.37 µM
HOP-62 NSCLC
  GI50: 2.47 µM
  TGI: 5.72 µM
ACHN renal
  GI50: 3.04 µM
  TGI: 10.5 µM
NCI/ADR-RES ovarian
  GI50: 7.45 µM
  TGI: 95.6 µM
BT-549 breast
  GI50: 2.41 µM
  TGI: 5.6 µM
TK-10 renal
  GI50: 5.01 µM
  TGI: 17.6 µM
SR leukemia
  GI50: 1.49 µM
  TGI: > 100 µM
SK-MEL-2 melanoma
  GI50: 19.6 µM
  TGI: 40.9 µM
HT29 colon
  GI50: 1.97 µM
  TGI: 3.95 µM
